Test results as given in ChEMBL document CHEMBL5543109, “Novel β-Hairpin Antimicrobial Peptide Containing the β-Turn Sequence of -NG- and the Tryptophan Zippers Facilitate Self-Assembly into Nanofibers, Exhibiting Excellent Antimicrobial Performance” (J Med Chem, 2024).
≈ marks a conversion by molar mass, not a printed value.

Columns and labels:
[1] = system: Pseudomonas aeruginosa; test: Antibacterial activity against Pseudomonas aeruginosa ATCC 27853 incubated for 18 hrs by broth microdilution method; assay type: functional
[2] = system: Escherichia coli; test: Bactericidal activity against Escherichia coli ATCC 25922 incubated for 18 hrs by broth microdilution method; assay type: functional
[3] = Retention time of the compound; assay type: physicochemical
[4] = system: Staphylococcus aureus; test: Antibacterial activity against Staphylococcus aureus ATCC 25923 incubated for 18 hrs by broth microdilution method; assay type: functional
[5] = system: Klebsiella pneumoniae; test: Bactericidal activity against Klebsiella pneumoniae ATCC 700603 incubated for 18 hrs by broth microdilution method; assay type: functional
[6] = system: Bacillus subtilis; test: Antibacterial activity against Bacillus subtilis ATCC 23857 incubated for 18 hrs by broth microdilution method; assay type: functional
[7] = system: Staphylococcus epidermidis; test: Bactericidal activity against Staphylococcus epidermidis ATCC 12228 incubated for 18 hrs by broth microdilution method; assay type: functional
[8] = Self-assembly property of compound in 50% TFE assessed as beta-sheet content; assay type: physicochemical
[9] = system: Escherichia coli; test: Antibacterial activity against Escherichia coli ATCC 25922 incubated for 18 hrs by broth microdilution method; assay type: functional
[10] = system: Erythrocyte; test: Hemolytic activity in mouse erythrocytes assessed as concentration required to cause 10% hemolysis incubated for 1 hr; assay type: toxicity, cell-based
[11] = system: Klebsiella pneumoniae; test: Antibacterial activity against Klebsiella pneumoniae ATCC 700603 incubated for 18 hrs by broth microdilution method; assay type: functional
[12] = system: Staphylococcus aureus; test: Bactericidal activity against Staphylococcus aureus ATCC 25923 incubated for 18 hrs by broth microdilution method; assay type: functional
[13] = system: Staphylococcus aureus; test: Antibacterial activity against Staphylococcus aureus at 2 times MIC preincubated for 1 hr with trypsin followed by enzyme inactivation and bacterial addition and measured after 18 hrs; assay type: functional; conditions: time 19 hrs
[14] = Self-assembly property of compound in water assessed as beta-sheet content; assay type: physicochemical
[15] = system: Bacillus subtilis; test: Bactericidal activity against Bacillus subtilis ATCC 23857 incubated for 18 hrs by broth microdilution method; assay type: functional
[16] = Self-assembly property of compound in PBS assessed as beta-sheet content; assay type: physicochemical; conditions: buffer
[17] = system: Pseudomonas aeruginosa; test: Bactericidal activity against Pseudomonas aeruginosa ATCC 27853 incubated for 18 hrs by broth microdilution method; assay type: functional
[18] = system: Staphylococcus aureus; test: Antibacterial activity against Staphylococcus aureus at 2 times MIC preincubated for 1 hr with chymotrypsin followed by enzyme inactivation and bacterial addition and measured after 18 hrs; assay type: functional; conditions: time 19 hrs
[19] = system: Staphylococcus epidermidis; test: Antibacterial activity against Staphylococcus epidermidis ATCC 12228 incubated for 18 hrs by broth microdilution method; assay type: functional
[20] = Self-assembly property of compound in PBS assessed as beta-sheet nanofibers formation incubated for 1 hr by Thioflavin T based fluorescence spectrophotometer analysis; assay type: physicochemical; conditions: buffer, dose 0.5-1.5 µM

MIC [1] [µM]	Retention_time [3] [min]	MIC [4] [µM]	MIC [6] [µM]	Activity [8] [%]	MIC [9] [µM]	MIC [11] [µM]	Activity [14] [%]	Activity [16] [%]	MIC [19] [µM]	Activity [20]	Compound	MBC [2] [µM]	MBC [5] [µM]	MBC [7] [µM]	MHC [10] [µM]	MBC [12] [µM]	Activity [13] [%]	MBC [15] [µM]	MBC [17] [µM]	Activity [18] [%]
64 (≈ 108 µg/mL)	11.212	32 (≈ 53.9 µg/mL)	2 (≈ 3.37 µg/mL)	39.2	8 (≈ 13.5 µg/mL)	32 (≈ 53.9 µg/mL)	84.3	80.2	4 (≈ 6.74 µg/mL)		NCCCC[C@@H](N)C(=O)N[C@H](Cc1c[nH]c2ccccc12)C(=O)N[C@H](CCCCN)C(=O)N[C@H](Cc1c[nH]c2ccccc12)C(=O)N[C@H](CCCCN)C(=O)N1CCC[C@H]1C(=O)NCC(=O)N[C@H](CCCCN)C(=O)N[C@H](Cc1c[nH]c2ccccc12)C(=O)N[C@H](CCCCN)C(=O)N[C@H](Cc1c[nH]c2ccccc12)C(=O)N[C@H](CCCCN)C(N)=O	16 (≈ 27 µg/mL)	64 (≈ 108 µg/mL)	8 (≈ 13.5 µg/mL)	> 512	32 (≈ 53.9 µg/mL)	100	8 (≈ 13.5 µg/mL)	128 (≈ 216 µg/mL)	100
8 (≈ 14.4 µg/mL)	14.321	4 (≈ 7.2 µg/mL)	2 (≈ 3.6 µg/mL)	30.1	8 (≈ 14.4 µg/mL)	8 (≈ 14.4 µg/mL)	63.8	63	4 (≈ 7.2 µg/mL)	Not Active	NCCCC[C@@H](NC(=O)[C@H](N)Cc1c[nH]c2ccccc12)C(=O)N[C@H](Cc1c[nH]c2ccccc12)C(=O)N[C@H](CCCCN)C(=O)N[C@H](Cc1c[nH]c2ccccc12)C(=O)N1CCC[C@H]1C(=O)NCC(=O)N[C@H](Cc1c[nH]c2ccccc12)C(=O)N[C@H](CCCCN)C(=O)N[C@H](Cc1c[nH]c2ccccc12)C(=O)N[C@H](CCCCN)C(=O)N[C@H](Cc1c[nH]c2ccccc12)C(N)=O	8 (≈ 14.4 µg/mL)	8 (≈ 14.4 µg/mL)	4 (≈ 7.2 µg/mL)	46	8 (≈ 14.4 µg/mL)	100	8 (≈ 14.4 µg/mL)	32 (≈ 57.6 µg/mL)	100
4 (≈ 7.2 µg/mL)	14.321	4 (≈ 7.2 µg/mL)	2 (≈ 3.6 µg/mL)	50	4 (≈ 7.2 µg/mL)	8 (≈ 14.4 µg/mL)	30.5	44.2	4 (≈ 7.2 µg/mL)		NCCCC[C@@H](NC(=O)[C@H](N)Cc1c[nH]c2ccccc12)C(=O)N[C@H](Cc1c[nH]c2ccccc12)C(=O)N[C@H](CCCCN)C(=O)N[C@H](Cc1c[nH]c2ccccc12)C(=O)N1CCC[C@@H]1C(=O)NCC(=O)N[C@H](Cc1c[nH]c2ccccc12)C(=O)N[C@H](CCCCN)C(=O)N[C@H](Cc1c[nH]c2ccccc12)C(=O)N[C@H](CCCCN)C(=O)N[C@H](Cc1c[nH]c2ccccc12)C(N)=O	4 (≈ 7.2 µg/mL)	8 (≈ 14.4 µg/mL)	8 (≈ 14.4 µg/mL)	147.6	8 (≈ 14.4 µg/mL)	100	2 (≈ 3.6 µg/mL)	32 (≈ 57.6 µg/mL)	100
4 (≈ 7.04 µg/mL)	14.321	4 (≈ 7.04 µg/mL)	2 (≈ 3.52 µg/mL)		8 (≈ 14.1 µg/mL)	8 (≈ 14.1 µg/mL)			4 (≈ 7.04 µg/mL)	Not Active	NCCCC[C@@H](NC(=O)[C@H](N)Cc1c[nH]c2ccccc12)C(=O)N[C@H](Cc1c[nH]c2ccccc12)C(=O)N[C@H](CCCCN)C(=O)N[C@H](Cc1c[nH]c2ccccc12)C(=O)NCC(=O)NCC(=O)N[C@H](Cc1c[nH]c2ccccc12)C(=O)N[C@H](CCCCN)C(=O)N[C@H](Cc1c[nH]c2ccccc12)C(=O)N[C@H](CCCCN)C(=O)N[C@H](Cc1c[nH]c2ccccc12)C(N)=O	8 (≈ 14.1 µg/mL)	8 (≈ 14.1 µg/mL)	4 (≈ 7.04 µg/mL)	66.3	4 (≈ 7.04 µg/mL)	100	8 (≈ 14.1 µg/mL)	32 (≈ 56.4 µg/mL)	100
